Converted amounts (≈) assume the structure as drawn.
What was measured:
L929 = assay: Cytotoxicity against mouse L929 cells assessed as cell viability up to MIC 0.39 ug/ml after 24 hrs by MTT assay; type: cell-based; conditions: l929, 24 h
Staphylococcus aureus [1] = assay: Antibacterial activity against Staphylococcus aureus ATCC 29213 after 24 hrs by spectrophotometric analysis; type: functional, organism-based
Staphylococcus aureus [2] = assay: Antibacterial activity against gentamicin-resistant Staphylococcus aureus ATCC 33592 after 24 hrs by spectrophotometric analysis; type: functional, organism-based
Staphylococcus aureus [3] = assay: Antibacterial activity against Staphylococcus aureus ATCC 25923 by NCCLS two-fold dilution method; type: functional
Staphylococcus aureus [4] = assay: Antibacterial activity against Staphylococcus aureus ATCC 25923 after 24 hrs by spectrophotometric analysis; type: functional, organism-based
Staphylococcus aureus [5] = assay: Antibacterial activity against methicillin-resistant Staphylococcus aureus ATCC 700699 by NCCLS two-fold dilution method; type: functional
Staphylococcus aureus [6] = assay: Antibacterial activity against gentamicin-resistant Staphylococcus aureus ATCC 33592 by NCCLS two-fold dilution method; type: functional
Staphylococcus aureus [7] = assay: Antibacterial activity against methicillin-resistant Staphylococcus aureus ATCC 700699 after 24 hrs by spectrophotometric analysis; type: functional, organism-based
Staphylococcus aureus [8] = assay: Antibacterial activity against Staphylococcus aureus ATCC 29213 by NCCLS two-fold dilution method; type: functional
Escherichia coli [9] = assay: Antibacterial activity against Escherichia coli by NCCLS two-fold dilution method; type: functional
Klebsiella pneumoniae [10] = assay: Antibacterial activity against Klebsiella pneumoniae after 24 hrs by spectrophotometric analysis; type: functional, organism-based
Escherichia coli [11] = assay: Antibacterial activity against Escherichia coli after 24 hrs by spectrophotometric analysis; type: functional, organism-based
Klebsiella pneumoniae [12] = assay: Antibacterial activity against Klebsiella pneumoniae by NCCLS two-fold dilution method; type: functional
[13] = Staphylococcus aureus, ATCC 29213, 24 h
[14] = Staphylococcus aureus, ATCC 29213, 24 h, read-out: IC50
[15] = Staphylococcus aureus, ATCC 33592, 24 h
[16] = Staphylococcus aureus, ATCC 33592, 24 h, read-out: IC50
[17] = Staphylococcus aureus, ATCC 25923
[18] = Staphylococcus aureus, ATCC 25923, 24 h
[19] = Staphylococcus aureus, ATCC 25923, 24 h, read-out: IC50
[20] = Staphylococcus aureus, ATCC 700699, 24 h
[21] = Staphylococcus aureus, ATCC 700699, 24 h, read-out: IC50
[22] = Klebsiella pneumoniae, 24 h, read-out: IC50

Compound	Activity (L929)	MIC (Staphylococcus aureus [1]; [13]) [µg/mL]	IC50 (Staphylococcus aureus [1]; [14]) [µg/mL]	MIC (Staphylococcus aureus [2]; [15]) [µg/mL]	IC50 (Staphylococcus aureus [2]; [16]) [µg/mL]	-logMIC (Staphylococcus aureus [3])	MIC (Staphylococcus aureus [3]; [17]) [µg/mL]	MIC (Staphylococcus aureus [4]; [18]) [µg/mL]	IC50 (Staphylococcus aureus [4]; [19]) [µg/mL]	MIC (Staphylococcus aureus [5]) [µg/mL]	MIC (Staphylococcus aureus [6]) [µg/mL]	MIC (Staphylococcus aureus [7]; [20]) [µg/mL]	IC50 (Staphylococcus aureus [7]; [21]) [µg/mL]	MIC (Staphylococcus aureus [8]) [µg/mL]	also measured
CCn1cc(C(=O)O)c(=O)c2cc(F)c(N3CCN(C(c4ccc(F)cc4)c4nnnn4C(C)(C)C)CC3)cc21 (centres undefined)	Non-toxic	0.7 (≈ 1.27 µM)	0.2 (≈ 0.363 µM)	0.5 (≈ 0.906 µM)	0.2 (≈ 0.363 µM)	5.548	0.78 (≈ 1.41 µM)	0.9 (≈ 1.63 µM)	0.3 (≈ 0.544 µM)	12.5 (≈ 22.7 µM)	0.78 (≈ 1.41 µM)	12.5 (≈ 22.7 µM)	10 (≈ 18.1 µM)	0.78 (≈ 1.41 µM)	
GENTAMICIN [listing 1 of 2 here]										> 50	> 50			> 50	MIC (Staphylococcus aureus [1]): > 50 µg/mL; MIC (Staphylococcus aureus [2]): > 50 µg/mL; MIC (Staphylococcus aureus [3]): 1.56 µg/mL; MIC (Escherichia coli [9]): 1.56 µg/mL; MIC (Staphylococcus aureus [4]): 2.1 µg/mL; MIC (Klebsiella pneumoniae [10]): 2.1 µg/mL; MIC (Escherichia coli [11]): 2.1 µg/mL; MIC (Klebsiella pneumoniae [12]): 1.56 µg/mL; MIC (Staphylococcus aureus [7]): > 50 µg/mL
CC(C)(C)n1nnnc1C(c1ccc(F)cc1)N1CCN(c2cc3c(cc2F)c(=O)c(C(=O)O)cn3Cc2ccc(C(F)(F)F)cc2)CC1 (centres undefined)	Non-toxic	1.6 (≈ 2.35 µM)	1.4 (≈ 2.05 µM)	2.5 (≈ 3.67 µM)	0.5 (≈ 0.733 µM)	5.037	6.25 (≈ 9.17 µM)	3.1 (≈ 4.55 µM)	1 (≈ 1.47 µM)	25 (≈ 36.7 µM)	6.25 (≈ 9.17 µM)	19.8 (≈ 29 µM)	8.09 (≈ 11.9 µM)	3.12 (≈ 4.58 µM)	
GENTAMICIN [listing 2 of 2 here]															IC50 (Staphylococcus aureus [1]): > 50 µg/mL; IC50 (Staphylococcus aureus [2]): > 50 µg/mL; IC50 (Staphylococcus aureus [4]): 1.7 µg/mL; IC50 (Klebsiella pneumoniae [10]): 1.7 µg/mL; IC50 (Escherichia coli [11]): 1.7 µg/mL; IC50 (Staphylococcus aureus [7]): > 50 µg/mL
O=C(O)c1cn(Cc2ccc(C(F)(F)F)cc2)c2cc(N3CCN(C(c4cccc5ccccc45)c4nnnn4C4CCCCC4)CC3)c(F)cc2c1=O (centres undefined)		> 50	> 50	> 50	> 50	4.169	50 (≈ 67.6 µM)	> 50	50 (≈ 67.6 µM)	> 50	> 50	> 50	> 50	> 50	
CCn1cc(C(=O)O)c(=O)c2cc(F)c(N3CCN(C(c4ccc(OC)c(OC)c4OC)c4nnnn4C(C)(C)C)CC3)cc21 (centres undefined)	Non-toxic	1.4 (≈ 2.24 µM)	0.8 (≈ 1.28 µM)	0.87 (≈ 1.39 µM)	0.75 (≈ 1.2 µM)	5.602	1.56 (≈ 2.5 µM)	0.81 (≈ 1.3 µM)	0.4 (≈ 0.641 µM)	50 (≈ 80.2 µM)	3.12 (≈ 5 µM)	50 (≈ 80.2 µM)	50 (≈ 80.2 µM)	3.12 (≈ 5 µM)	MIC (Escherichia coli [9]): 50 µg/mL (≈ 80.2 µM); MIC (Klebsiella pneumoniae [10]; Klebsiella pneumoniae, 24 h): > 50 µg/mL; IC50 (Klebsiella pneumoniae [10]; [22]): > 50 µg/mL; MIC (Escherichia coli [11]; Escherichia coli, 24 h): 46 µg/mL (≈ 73.8 µM); IC50 (Escherichia coli [11]; Escherichia coli, 24 h, read-out: IC50): 29 µg/mL (≈ 46.5 µM); MIC (Klebsiella pneumoniae [12]): > 50 µg/mL
CCn1cc(C(=O)O)c(=O)c2cc(F)c(N3CCN(C(c4cccc5ccccc45)c4nnnn4C4CCCCC4)CC3)cc21 (centres undefined)		2.9 (≈ 4.76 µM)	1.6 (≈ 2.62 µM)	4.2 (≈ 6.89 µM)	1.6 (≈ 2.62 µM)	5.29	3.12 (≈ 5.12 µM)	1.4 (≈ 2.3 µM)	0.77 (≈ 1.26 µM)	25 (≈ 41 µM)	3.12 (≈ 5.12 µM)	8.2 (≈ 13.4 µM)	3.7 (≈ 6.07 µM)	6.25 (≈ 10.3 µM)	
CCn1cc(C(=O)O)c(=O)c2cc(F)c(N3CCN(C(c4ccc(F)cc4)c4nnnn4C4CCCCC4)CC3)cc21 (centres undefined)		> 50	50 (≈ 86.6 µM)	50 (≈ 86.6 µM)	50 (≈ 86.6 µM)	5.568	1.56 (≈ 2.7 µM)	2.1 (≈ 3.64 µM)	0.5 (≈ 0.866 µM)	50 (≈ 86.6 µM)	50 (≈ 86.6 µM)	50 (≈ 86.6 µM)	50 (≈ 86.6 µM)	50 (≈ 86.6 µM)	
CCn1cc(C(=O)O)c(=O)c2cc(F)c(N3CCN(C(c4ccccc4)c4nnnn4C(C)(C)C)CC3)cc21 (centres undefined)	Non-toxic	0.5 (≈ 0.937 µM)	0.2 (≈ 0.375 µM)	0.38 (≈ 0.712 µM)	0.34 (≈ 0.637 µM)	6.136	0.39 (≈ 0.731 µM)	0.38 (≈ 0.712 µM)	0.37 (≈ 0.693 µM)	25 (≈ 46.9 µM)	0.39 (≈ 0.731 µM)	8.3 (≈ 15.6 µM)	3.8 (≈ 7.12 µM)	0.78 (≈ 1.46 µM)	
O=C(O)c1cn(C2CC2)c2cc(N3CCNCC3)c(F)cc2c1=O [CIPROFLOXACIN]		20.2 (≈ 61 µM)	16.7 (≈ 50.4 µM)	0.4 (≈ 1.21 µM)	0.2 (≈ 0.604 µM)		0.78 (≈ 2.35 µM)	0.9 (≈ 2.72 µM)	0.3 (≈ 0.905 µM)		0.19 (≈ 0.573 µM)	20.2 (≈ 61 µM)	16.7 (≈ 50.4 µM)		MIC (Klebsiella pneumoniae [10]; Klebsiella pneumoniae, 24 h): 0.049 µg/mL (≈ 0.148 µM); IC50 (Klebsiella pneumoniae [10]; [22]): 0.02 µg/mL (≈ 0.0604 µM); MIC (Klebsiella pneumoniae [12]): 0.012 µg/mL (≈ 0.0362 µM)
COc1ccc(C(c2nnnn2C2CCCCC2)N2CCN(c3cc4c(cc3F)c(=O)c(C(=O)O)cn4Cc3ccc(C(F)(F)F)cc3)CC2)c(OC)c1OC (centres undefined)		> 50	> 50	> 50	50 (≈ 64.1 µM)	4.193	50 (≈ 64.1 µM)	50 (≈ 64.1 µM)	> 50	> 50	> 50	> 50	> 50	> 50	
CC(C)c1ccc(C(c2nnnn2C(C)(C)C)N2CCN(c3cc4c(cc3F)c(=O)c(C(=O)O)cn4Cc3ccc(C(F)(F)F)cc3)CC2)cc1 (centres undefined)		3.1 (≈ 4.39 µM)	1.5 (≈ 2.13 µM)	0.87 (≈ 1.23 µM)	0.8 (≈ 1.13 µM)	4.149	3.12 (≈ 4.42 µM)	3.12 (≈ 4.42 µM)	1.8 (≈ 2.55 µM)	3.12 (≈ 4.42 µM)	3.12 (≈ 4.42 µM)	1.6 (≈ 2.27 µM)	1.4 (≈ 1.98 µM)	6.25 (≈ 8.86 µM)	
COc1ccc(C(c2nnnn2C2CCCCC2)N2CCN(c3cc4c(cc3F)c(=O)c(C(=O)O)cn4Cc3ccc(C(F)(F)F)cc3)CC2)c2ccccc12 (centres undefined)		> 50	> 50	> 50	> 50	4.187	50 (≈ 65 µM)	> 50	50 (≈ 65 µM)	> 50	> 50	> 50	> 50	> 50	
CCn1cc(C(=O)O)c(=O)c2cc(F)c(N3CCN(C(c4cccc5ccccc45)c4nnnn4C(C)(C)C)CC3)cc21 (centres undefined)	Non-toxic	2.4 (≈ 4.11 µM)	0.2 (≈ 0.343 µM)	0.7 (≈ 1.2 µM)	0.2 (≈ 0.343 µM)	5.573	1.56 (≈ 2.67 µM)	0.8 (≈ 1.37 µM)	0.7 (≈ 1.2 µM)	6.25 (≈ 10.7 µM)	0.78 (≈ 1.34 µM)	4.9 (≈ 8.4 µM)	3.5 (≈ 6 µM)	3.12 (≈ 5.35 µM)	
CCn1cc(C(=O)O)c(=O)c2cc(F)c(N3CCN(C(c4ccccc4)c4nnnn4C4CCCCC4)CC3)cc21 (centres undefined)	Non-toxic	1.5 (≈ 2.68 µM)	0.8 (≈ 1.43 µM)	0.78 (≈ 1.39 µM)	0.75 (≈ 1.34 µM)	5.554	1.56 (≈ 2.79 µM)	0.8 (≈ 1.43 µM)	0.4 (≈ 0.715 µM)	12.5 (≈ 22.3 µM)	1.56 (≈ 2.79 µM)	11.6 (≈ 20.7 µM)	4.9 (≈ 8.76 µM)	3.12 (≈ 5.57 µM)	
CC(C)c1ccc(C(c2nnnn2C2CCCCC2)N2CCN(c3cc4c(cc3F)c(=O)c(C(=O)O)cn4Cc3ccc(C(F)(F)F)cc3)CC2)cc1 (centres undefined)		> 50	50 (≈ 68.3 µM)	> 50	50 (≈ 68.3 µM)	4.165	50 (≈ 68.3 µM)	50 (≈ 68.3 µM)	> 50	> 50	> 50	50 (≈ 68.3 µM)	> 50	> 50	
COc1ccc(C(c2nnnn2C(C)(C)C)N2CCN(c3cc4c(cc3F)c(=O)c(C(=O)O)cn4Cc3ccc(C(F)(F)F)cc3)CC2)c2ccccc12 (centres undefined)		> 50	> 50	> 50	> 50	4.172	50 (≈ 67.2 µM)	> 50	50 (≈ 67.2 µM)	> 50	> 50	50 (≈ 67.2 µM)	50 (≈ 67.2 µM)	> 50	
COc1ccc(C(c2nnnn2C(C)(C)C)N2CCN(c3cc4c(cc3F)c(=O)c(C(=O)O)cn4Cc3ccc(C(F)(F)F)cc3)CC2)c(OC)c1OC (centres undefined)		50 (≈ 66.3 µM)	50 (≈ 66.3 µM)	50 (≈ 66.3 µM)	50 (≈ 66.3 µM)	4.178	50 (≈ 66.3 µM)	50 (≈ 66.3 µM)	50 (≈ 66.3 µM)	50 (≈ 66.3 µM)	50 (≈ 66.3 µM)	50 (≈ 66.3 µM)	50 (≈ 66.3 µM)	50 (≈ 66.3 µM)	
CC(C)(C)n1nnnc1C(c1ccncc1)N1CCN(c2cc3c(cc2F)c(=O)c(C(=O)O)cn3Cc2ccc(C(F)(F)F)cc2)CC1 (centres undefined)		50 (≈ 75.2 µM)	50 (≈ 75.2 µM)	50 (≈ 75.2 µM)	50 (≈ 75.2 µM)	4.123	50 (≈ 75.2 µM)	50 (≈ 75.2 µM)	50 (≈ 75.2 µM)	50 (≈ 75.2 µM)	50 (≈ 75.2 µM)	50 (≈ 75.2 µM)	50 (≈ 75.2 µM)	50 (≈ 75.2 µM)	
CCn1cc(C(=O)O)c(=O)c2cc(F)c(N3CCN(C(c4ccc(C(C)C)cc4)c4nnnn4C(C)(C)C)CC3)cc21 (centres undefined)		> 50	50 (≈ 86.9 µM)	50 (≈ 86.9 µM)	> 50	4.06	50 (≈ 86.9 µM)	50 (≈ 86.9 µM)	50 (≈ 86.9 µM)	50 (≈ 86.9 µM)	> 50	50 (≈ 86.9 µM)	50 (≈ 86.9 µM)	50 (≈ 86.9 µM)	
